Assay results taken from ChEMBL document CHEMBL3769377, “A synthesis, in silico, in vitro and in vivo study of thieno[2,3-b]pyridine anticancer analogues” (Medchemcomm, 2015).

What was measured:
[1] = molecular target: Cyclin-dependent kinase 7 (Homo sapiens) (UniProt P50613); experiment: Inhibition of human recombinant CDK7 assessed as residual activity at 10 uM after 1 hr by qPCR analysis relative to control
[2] = molecular target: Casein kinase I isoform gamma-2 (Homo sapiens) (UniProt P78368); experiment: Inhibition of human recombinant CSNK1G2 assessed as residual activity at 10 uM after 1 hr by qPCR analysis relative to control
[3] = molecular target: Serine/threonine-protein kinase DCLK1 (Homo sapiens) (UniProt O15075); experiment: Inhibition of human recombinant DCAMKL1 assessed as residual activity at 10 uM after 1 hr by qPCR analysis relative to control
[4] = molecular target: Epidermal growth factor receptor (Homo sapiens) (UniProt P00533); experiment: Inhibition of human recombinant EGFR assessed as residual activity at 10 uM after 1 hr by qPCR analysis relative to control
[5] = molecular target: Receptor tyrosine-protein kinase erbB-4 (Homo sapiens) (UniProt Q15303); experiment: Inhibition of human recombinant ERBB4 assessed as residual activity at 10 uM after 1 hr by qPCR analysis relative to control
[6] = molecular target: Fibroblast growth factor receptor 2 (Homo sapiens) (UniProt P21802); experiment: Inhibition of human recombinant FGFR2 assessed as residual activity at 10 uM after 1 hr by qPCR analysis relative to control
[7] = molecular target: Receptor-type tyrosine-protein kinase FLT3 (Homo sapiens) (UniProt P36888); experiment: Inhibition of human recombinant FLT3 assessed as residual activity at 10 uM after 1 hr by qPCR analysis relative to control
[8] = molecular target: Inhibitor of nuclear factor kappa-B kinase subunit alpha (Homo sapiens) (UniProt O15111); experiment: Inhibition of human recombinant IKKalpha assessed as residual activity at 10 uM after 1 hr by qPCR analysis relative to control
[9] = molecular target: Insulin receptor (Homo sapiens) (UniProt P06213); experiment: Inhibition of human recombinant INSR assessed as residual activity at 10 uM after 1 hr by qPCR analysis relative to control
[10] = molecular target: Tyrosine-protein kinase JAK3 (Homo sapiens) (UniProt P52333); experiment: Inhibition of human recombinant JAK3 (JH1 domain-catalytic) assessed as residual activity at 10 uM after 1 hr by qPCR analysis relative to control
[11] = system: Mast/stem cell growth factor receptor Kit (Homo sapiens), P10721 [D816V]; experiment: Inhibition of human recombinant KIT D816V mutant assessed as residual activity at 10 uM after 1 hr by qPCR analysis relative to control
[12] = system: Mast/stem cell growth factor receptor Kit (Homo sapiens), P10721 [V559D,T670I]; experiment: Inhibition of human recombinant KIT V559D/T670I double mutant assessed as residual activity at 10 uM after 1 hr by qPCR analysis relative to control
[13] = molecular target: Serine/threonine-protein kinase STK11 (Homo sapiens) (UniProt Q15831); experiment: Inhibition of human recombinant LKB1 assessed as residual activity at 10 uM after 1 hr by qPCR analysis relative to control
[14] = molecular target: Mitogen-activated protein kinase kinase kinase 4 (Homo sapiens) (UniProt Q9Y6R4); experiment: Inhibition of human recombinant MAP3K4 assessed as residual activity at 10 uM after 1 hr by qPCR analysis relative to control
[15] = molecular target: MAP kinase-interacting serine/threonine-protein kinase 2 (Homo sapiens) (UniProt Q9HBH9); experiment: Inhibition of human recombinant MKNK2 assessed as residual activity at 10 uM after 1 hr by qPCR analysis relative to control
[16] = molecular target: Mitogen-activated protein kinase 11 (Homo sapiens) (UniProt Q15759); experiment: Inhibition of human recombinant p38beta assessed as residual activity at 10 uM after 1 hr by qPCR analysis relative to control
[17] = molecular target: Serine/threonine-protein kinase PAK 1 (Homo sapiens) (UniProt Q13153); experiment: Inhibition of human recombinant PAK1 assessed as residual activity at 10 uM after 1 hr by qPCR analysis relative to control
[18] = molecular target: Serine/threonine-protein kinase PAK 4 (Homo sapiens) (UniProt O96013); experiment: Inhibition of human recombinant PAK4 assessed as residual activity at 10 uM after 1 hr by qPCR analysis relative to control
[19] = molecular target: Platelet-derived growth factor receptor alpha (Homo sapiens) (UniProt P16234); experiment: Inhibition of human recombinant PDGFRA assessed as residual activity at 10 uM after 1 hr by qPCR analysis relative to control
[20] = molecular target: Serine/threonine-protein kinase pim-2 (Homo sapiens) (UniProt Q9P1W9); experiment: Inhibition of human recombinant PIM2 assessed as residual activity at 10 uM after 1 hr by qPCR analysis relative to control
[21] = molecular target: Serine/threonine-protein kinase PLK3 (Homo sapiens) (UniProt Q9H4B4); experiment: Inhibition of human recombinant PLK3 assessed as residual activity at 10 uM after 1 hr by qPCR analysis relative to control
[22] = molecular target: RAF proto-oncogene serine/threonine-protein kinase (Homo sapiens) (UniProt P04049); experiment: Inhibition of human recombinant RAF1 assessed as residual activity at 10 uM after 1 hr by qPCR analysis relative to control
[23] = molecular target: NUAK family SNF1-like kinase 2 (Homo sapiens) (UniProt Q9H093); experiment: Inhibition of human recombinant SNARK assessed as residual activity at 10 uM after 1 hr by qPCR analysis relative to control
[24] = molecular target: Serine/threonine-protein kinase ULK2 (Homo sapiens) (UniProt Q8IYT8); experiment: Inhibition of human recombinant ULK2 assessed as residual activity at 10 uM after 1 hr by qPCR analysis relative to control
[25] = molecular target: Vascular endothelial growth factor receptor 2 (Homo sapiens) (UniProt P35968); experiment: Inhibition of human recombinant VEGFR2 assessed as residual activity at 10 uM after 1 hr by qPCR analysis relative to control
[26] = molecular target: Activin receptor type-1B (Homo sapiens) (UniProt P36896); experiment: Inhibition of human recombinant ACVR1B assessed as residual activity at 10 uM after 1 hr by qPCR analysis relative to control
[27] = molecular target: Aurora kinase A (Homo sapiens) (UniProt O14965); experiment: Inhibition of human recombinant AURKA assessed as residual activity at 10 uM after 1 hr by qPCR analysis relative to control
[28] = molecular target: Aurora kinase B (Homo sapiens) (UniProt Q96GD4); experiment: Inhibition of human recombinant AURKB assessed as residual activity at 10 uM after 1 hr by qPCR analysis relative to control
[29] = molecular target: Bone morphogenetic protein receptor type-2 (Homo sapiens) (UniProt Q13873); experiment: Inhibition of human recombinant BMPR2 assessed as residual activity at 10 uM after 1 hr by qPCR analysis relative to control
[30] = molecular target: Serine/threonine-protein kinase B-raf (Homo sapiens) (UniProt P15056); experiment: Inhibition of human recombinant BRAF assessed as residual activity at 10 uM after 1 hr by qPCR analysis relative to control

Inhibitor of nuclear factor kappa-B kinase subunit alpha (Homo sapiens), sequence (O15111 whole entry): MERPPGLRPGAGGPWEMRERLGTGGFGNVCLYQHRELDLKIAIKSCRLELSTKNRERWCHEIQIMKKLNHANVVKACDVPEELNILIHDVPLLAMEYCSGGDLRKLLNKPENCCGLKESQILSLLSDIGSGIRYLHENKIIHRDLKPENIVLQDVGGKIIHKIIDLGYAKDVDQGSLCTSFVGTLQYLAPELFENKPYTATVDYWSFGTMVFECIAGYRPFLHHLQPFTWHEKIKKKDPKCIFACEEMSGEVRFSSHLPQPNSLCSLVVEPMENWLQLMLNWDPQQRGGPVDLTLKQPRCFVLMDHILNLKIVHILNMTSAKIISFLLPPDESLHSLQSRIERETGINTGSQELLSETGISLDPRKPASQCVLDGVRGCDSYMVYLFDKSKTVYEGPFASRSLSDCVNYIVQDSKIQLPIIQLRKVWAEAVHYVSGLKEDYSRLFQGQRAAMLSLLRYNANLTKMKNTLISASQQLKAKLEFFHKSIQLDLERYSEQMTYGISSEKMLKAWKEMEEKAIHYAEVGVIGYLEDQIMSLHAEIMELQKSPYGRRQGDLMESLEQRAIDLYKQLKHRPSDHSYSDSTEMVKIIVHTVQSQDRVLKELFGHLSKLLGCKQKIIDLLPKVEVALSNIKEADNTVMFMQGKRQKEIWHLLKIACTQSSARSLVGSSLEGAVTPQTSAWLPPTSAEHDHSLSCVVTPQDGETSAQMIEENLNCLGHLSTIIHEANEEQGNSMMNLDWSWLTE
Serine/threonine-protein kinase pim-2 (Homo sapiens), sequence (Q9P1W9 whole entry, looked up): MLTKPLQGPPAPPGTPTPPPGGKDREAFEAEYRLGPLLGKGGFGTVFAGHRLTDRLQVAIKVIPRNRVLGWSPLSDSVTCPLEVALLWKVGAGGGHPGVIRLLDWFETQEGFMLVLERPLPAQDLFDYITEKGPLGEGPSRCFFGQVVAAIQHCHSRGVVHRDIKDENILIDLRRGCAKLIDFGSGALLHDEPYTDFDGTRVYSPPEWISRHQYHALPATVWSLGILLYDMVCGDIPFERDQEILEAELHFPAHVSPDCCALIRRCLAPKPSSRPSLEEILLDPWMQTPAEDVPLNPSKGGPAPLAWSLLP
Receptor-type tyrosine-protein kinase FLT3 (Homo sapiens), sequence (P36888 whole entry): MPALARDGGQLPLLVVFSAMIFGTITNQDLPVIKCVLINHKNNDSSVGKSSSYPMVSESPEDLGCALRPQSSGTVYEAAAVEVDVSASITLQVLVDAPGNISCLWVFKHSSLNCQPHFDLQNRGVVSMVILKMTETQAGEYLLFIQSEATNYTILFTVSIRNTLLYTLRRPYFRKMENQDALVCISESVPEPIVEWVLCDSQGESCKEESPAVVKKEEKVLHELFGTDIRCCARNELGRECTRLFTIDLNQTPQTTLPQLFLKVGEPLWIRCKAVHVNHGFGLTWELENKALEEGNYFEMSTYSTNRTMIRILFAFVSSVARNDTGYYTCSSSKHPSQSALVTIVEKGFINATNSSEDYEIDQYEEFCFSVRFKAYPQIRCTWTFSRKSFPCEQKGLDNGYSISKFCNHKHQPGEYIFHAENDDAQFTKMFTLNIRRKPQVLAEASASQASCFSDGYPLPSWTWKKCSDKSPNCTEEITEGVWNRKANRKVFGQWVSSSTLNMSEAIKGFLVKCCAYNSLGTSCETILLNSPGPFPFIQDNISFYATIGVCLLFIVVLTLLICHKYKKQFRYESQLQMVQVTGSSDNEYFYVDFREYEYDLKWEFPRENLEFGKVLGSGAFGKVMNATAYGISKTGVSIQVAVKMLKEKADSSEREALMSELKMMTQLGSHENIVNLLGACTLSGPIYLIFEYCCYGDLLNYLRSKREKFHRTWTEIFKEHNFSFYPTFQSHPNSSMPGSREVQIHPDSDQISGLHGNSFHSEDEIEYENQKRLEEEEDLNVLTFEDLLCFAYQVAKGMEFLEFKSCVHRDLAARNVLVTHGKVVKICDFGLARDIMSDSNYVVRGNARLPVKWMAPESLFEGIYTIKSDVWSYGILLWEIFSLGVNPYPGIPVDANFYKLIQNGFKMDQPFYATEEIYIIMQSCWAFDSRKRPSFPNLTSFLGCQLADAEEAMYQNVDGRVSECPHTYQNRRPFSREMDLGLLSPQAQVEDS
Aurora kinase A (Homo sapiens), sequence (O14965 whole entry): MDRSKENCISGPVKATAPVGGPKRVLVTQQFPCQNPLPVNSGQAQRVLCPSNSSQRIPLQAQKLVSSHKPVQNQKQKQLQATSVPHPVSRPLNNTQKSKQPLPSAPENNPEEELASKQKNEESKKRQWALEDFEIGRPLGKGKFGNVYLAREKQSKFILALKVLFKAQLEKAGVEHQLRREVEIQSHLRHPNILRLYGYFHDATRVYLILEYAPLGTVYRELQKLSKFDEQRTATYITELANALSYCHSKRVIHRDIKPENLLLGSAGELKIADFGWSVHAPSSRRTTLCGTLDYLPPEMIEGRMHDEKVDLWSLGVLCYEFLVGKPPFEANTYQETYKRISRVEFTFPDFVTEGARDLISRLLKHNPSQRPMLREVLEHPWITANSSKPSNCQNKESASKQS
Fibroblast growth factor receptor 2 (Homo sapiens), sequence (P21802 22-821 limits assumed): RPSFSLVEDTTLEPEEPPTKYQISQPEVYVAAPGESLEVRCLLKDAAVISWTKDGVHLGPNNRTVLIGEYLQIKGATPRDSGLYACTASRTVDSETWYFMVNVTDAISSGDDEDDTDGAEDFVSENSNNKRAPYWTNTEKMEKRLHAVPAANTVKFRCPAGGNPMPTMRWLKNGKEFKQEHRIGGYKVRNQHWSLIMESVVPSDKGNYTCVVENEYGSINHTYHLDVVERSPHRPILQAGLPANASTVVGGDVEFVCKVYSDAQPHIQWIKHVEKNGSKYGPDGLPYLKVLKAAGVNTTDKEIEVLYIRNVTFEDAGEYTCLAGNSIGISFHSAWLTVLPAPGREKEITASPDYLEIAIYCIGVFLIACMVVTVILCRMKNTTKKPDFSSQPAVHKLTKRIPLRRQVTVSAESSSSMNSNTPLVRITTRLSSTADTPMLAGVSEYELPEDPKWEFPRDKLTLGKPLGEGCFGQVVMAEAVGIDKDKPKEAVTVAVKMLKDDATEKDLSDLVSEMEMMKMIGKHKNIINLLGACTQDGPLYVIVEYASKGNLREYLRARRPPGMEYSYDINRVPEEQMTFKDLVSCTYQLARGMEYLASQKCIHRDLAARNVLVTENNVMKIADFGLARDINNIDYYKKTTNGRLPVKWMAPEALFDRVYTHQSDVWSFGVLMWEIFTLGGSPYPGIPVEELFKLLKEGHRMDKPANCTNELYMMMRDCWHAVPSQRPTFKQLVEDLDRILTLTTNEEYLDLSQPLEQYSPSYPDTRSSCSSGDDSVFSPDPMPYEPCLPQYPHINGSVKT
Cyclin-dependent kinase 7 (Homo sapiens), sequence (P50613 whole entry, canonical isoform): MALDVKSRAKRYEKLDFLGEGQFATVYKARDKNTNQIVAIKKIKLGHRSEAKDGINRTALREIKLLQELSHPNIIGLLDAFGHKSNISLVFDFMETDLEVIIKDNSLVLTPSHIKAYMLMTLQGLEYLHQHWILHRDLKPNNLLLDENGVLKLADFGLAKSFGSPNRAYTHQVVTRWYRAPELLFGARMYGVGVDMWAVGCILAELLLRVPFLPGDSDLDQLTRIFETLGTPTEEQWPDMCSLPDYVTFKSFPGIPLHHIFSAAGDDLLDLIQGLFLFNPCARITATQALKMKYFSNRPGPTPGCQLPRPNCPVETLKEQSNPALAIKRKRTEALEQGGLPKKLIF
Insulin receptor (Homo sapiens), sequence (P06213 28-758 limits assumed): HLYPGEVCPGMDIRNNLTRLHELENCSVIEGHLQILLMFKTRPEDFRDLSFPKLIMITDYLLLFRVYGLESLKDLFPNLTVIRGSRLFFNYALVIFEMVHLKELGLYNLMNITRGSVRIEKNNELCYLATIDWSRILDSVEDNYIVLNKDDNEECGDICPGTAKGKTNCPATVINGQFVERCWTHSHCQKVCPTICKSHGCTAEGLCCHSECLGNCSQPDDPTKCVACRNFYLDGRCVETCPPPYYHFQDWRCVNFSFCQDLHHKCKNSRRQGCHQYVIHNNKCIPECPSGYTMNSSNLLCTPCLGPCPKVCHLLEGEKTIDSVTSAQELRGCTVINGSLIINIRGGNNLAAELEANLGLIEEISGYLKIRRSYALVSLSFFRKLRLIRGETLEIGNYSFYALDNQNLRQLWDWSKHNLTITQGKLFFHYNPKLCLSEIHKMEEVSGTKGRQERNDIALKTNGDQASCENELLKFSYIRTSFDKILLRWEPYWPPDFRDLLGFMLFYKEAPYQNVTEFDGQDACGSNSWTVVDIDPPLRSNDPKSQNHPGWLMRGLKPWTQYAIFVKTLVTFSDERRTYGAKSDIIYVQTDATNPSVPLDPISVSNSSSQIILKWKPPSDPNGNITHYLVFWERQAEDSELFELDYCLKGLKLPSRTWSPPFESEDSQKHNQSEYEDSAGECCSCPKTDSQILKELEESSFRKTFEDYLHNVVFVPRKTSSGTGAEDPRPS
Insulin receptor (Homo sapiens), sequence (P06213 763-1382 limits assumed): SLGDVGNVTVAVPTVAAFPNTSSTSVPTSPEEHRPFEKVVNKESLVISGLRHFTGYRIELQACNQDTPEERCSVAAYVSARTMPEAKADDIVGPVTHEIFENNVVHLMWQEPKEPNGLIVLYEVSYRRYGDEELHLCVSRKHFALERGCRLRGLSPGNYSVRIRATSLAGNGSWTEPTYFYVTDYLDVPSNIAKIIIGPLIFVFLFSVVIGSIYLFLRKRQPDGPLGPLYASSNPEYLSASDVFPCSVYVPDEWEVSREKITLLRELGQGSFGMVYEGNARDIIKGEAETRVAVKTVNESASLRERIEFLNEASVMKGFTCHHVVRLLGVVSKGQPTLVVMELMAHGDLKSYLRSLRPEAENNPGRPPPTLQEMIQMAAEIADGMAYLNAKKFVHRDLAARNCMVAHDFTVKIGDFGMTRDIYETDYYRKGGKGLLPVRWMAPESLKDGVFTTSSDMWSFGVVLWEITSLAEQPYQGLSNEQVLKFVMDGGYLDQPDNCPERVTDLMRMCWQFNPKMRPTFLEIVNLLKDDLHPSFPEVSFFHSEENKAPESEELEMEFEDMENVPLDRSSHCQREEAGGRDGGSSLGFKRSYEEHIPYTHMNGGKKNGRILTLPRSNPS

Cc1c(Cl)cccc1NC(=O)c1sc2nc3c(cc2c1N)C(=O)CC3
Activity [1]: 99%
Activity [2]: 97%
Activity [3]: 100%
Activity [4]: 100%
Activity [5]: 100%
Activity [6]: 100%
Activity [7]: 100%
Activity [8]: 100%
Activity [9]: 97%
Activity [10]: 100%
Activity [11]: 93%
Activity [12]: 99%
Activity [13]: 76%
Activity [14]: 96%
Activity [15]: 91%
Activity [16]: 100%
Activity [17]: 87%
Activity [18]: 85%
Activity [19]: 100%
Activity [20]: 80%
Activity [21]: 100%
Activity [22]: 100%
Activity [23]: 100%
Activity [24]: 97%
Activity [25]: 100%
Activity [26]: 100%
Activity [27]: 98%
Activity [28]: 92%
Activity [29]: 96%
Activity [30]: 96%
